Experimental data: the supplement of paper PMC11451515

Tests used:
Settings in all cases: 48 h
[1] = test system: SEM cells; test: cell viability relative to DMSO control; higher = less cytotoxic
How it was run: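 Cells were incubated for 48 h at 37°C before CellTiter-Glo One luminescence was read. The cells were NOMO1 or SEM (500 cells/well) or P12-Ichikawa (1000 cells/well) leukemia cells, adapted for at least four passages in each medium and seeded in 1536-well plates (5 μl). Dosing used library compounds in DMSO applied by pin over 11 threefold points, 47 μM to 0.79 nM. Viability is the per-plate percentage of DMSO wells, with cell-free wells as background.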

[2] = test system: NOMO1; test: AUC of viability dose-response curve (% viability x log10 dose units); higher = less sensitive
How it was run: (§1)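 Medium-adapted leukemia cells in 1536-well plates, at 500 or 1000 cells/well, were incubated for 48 h at 37°C with library compounds in DMSO at 11 threefold doses from 47 μM to 0.79 nM. CellTiter-Glo One luminescence normalised per plate to DMSO and cell-free wells was fitted with a four-parameter log-logistic model over log10 doses. Area under the curve was integrated from this fit by trapezoidal rule, with curves beyond full viability scaled and failed quality-control curves removed.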

[3] = test system: P12-Ichikawa; test: as above
How it was run: as §1

[4] = test system: SEM cells; test: as above
How it was run: as §1

OC(CN1CCC(Cc2ccc(F)cc2)CC1)c1ccc(Cl)cc1 (configuration not stated)
cell viability [%], [1]
Settings | HPLM + 10% dialyzed FBS | RPMI 5 mM glucose + 10% dialyzed FBS
0.000781 µM | 106 | 116
0.00234 µM | 118 | 125
0.00702 µM | 108 | 115
0.0211 µM | 115 | 129
0.0632 µM | 116 | 126
0.19 µM | 118 | 139
0.569 µM | 117 | 140
1.71 µM | 122 | 136
5.12 µM | 124 | 125
15.4 µM | 130 | 128
46.1 µM | 129 | 136

AUC of viability dose-response curve
Settings | [2] | [3] | [4]
HPLM + 10% dialyzed FBS | 456 | 449 | 440
RPMI 5 mM glucose + 10% FBS | 455 | 451 | 451
RPMI 5 mM glucose + 10% dialyzed FBS | 448 | 451 | 461

Fc1ccc([C@@H]2CCNC[C@H]2COc2ccc3c(c2)OCO3)cc1
[1], HPLM + 10% dialyzed FBS
Settings | cell viability [%]
0.000781 µM | 119
0.00234 µM | 124
0.00702 µM | 130
0.0211 µM | 141
0.0632 µM | 122
0.19 µM | 123
0.569 µM | 125
1.71 µM | 109
5.12 µM | 103
15.4 µM | 58.9
46.1 µM | 24.7

AUC of viability dose-response curve
Settings | [2] | [3] | [4]
HPLM + 10% dialyzed FBS | 447 | 396 | 417
RPMI 5 mM glucose + 10% FBS | 463 | 337 | 407
RPMI 5 mM glucose + 10% dialyzed FBS | 455 | 393 | 416

OC(Cn1cncn1)(Cn1cncn1)c1ccc(F)cc1F
AUC of viability dose-response curve
Settings | [2] | [3] | [4]
HPLM + 10% dialyzed FBS | 431 | 448 | 463
RPMI 5 mM glucose + 10% FBS | 449 | 448 | 451
RPMI 5 mM glucose + 10% dialyzed FBS | 449 | 462 | 467

CC1COC2(CCN(CC2)C/3=N/C(=O)C4=CC(=CC(=C4S3)[N+]([O-])=O)C(F)(F)F)O1 (configuration not stated)
[1], HPLM + 10% dialyzed FBS
Settings | cell viability [%]
0.000781 µM | 97.9
0.00234 µM | 105
0.00702 µM | 122
0.0211 µM | 109
0.0632 µM | 93.9
0.19 µM | 126
0.569 µM | 133
1.71 µM | 122
5.12 µM | 117
15.4 µM | 82.3
46.1 µM | 78.3

AUC of viability dose-response curve
Settings | [2] | [3] | [4]
HPLM + 10% dialyzed FBS | 471 | 448 | 456
RPMI 5 mM glucose + 10% FBS | 473 | 442 | 441
RPMI 5 mM glucose + 10% dialyzed FBS | 467 | 434 | 446

C[C@@H]1CC[C@H]2[C@@H](C)C(=O)O[C@@H]3O[C@@]4(C)CC[C@@H]1[C@]32OO4
cell viability [%], [1]
Settings | RPMI 5 mM glucose + 10% FBS | RPMI 5 mM glucose + 10% dialyzed FBS
0.000781 µM | 115 | 132
0.00234 µM | 144 | 113
0.00702 µM | 118 | 120
0.0211 µM | 134 | 118
0.0632 µM | 109 | 110
0.19 µM | 108 | 100
0.569 µM | 115 | 97.6
1.71 µM | 87.6 | 77.3
5.12 µM | 91.7 | 72.2
15.4 µM | 116 | 112
46.1 µM | 114 | 126

AUC of viability dose-response curve
Settings | [2] | [3] | [4]
HPLM + 10% dialyzed FBS | 435 | 440 | 436
RPMI 5 mM glucose + 10% FBS | 419 | 412 | 424
RPMI 5 mM glucose + 10% dialyzed FBS | 451 | 416 | 418

CC[C@@]1(O)C(=O)OC\C2=C1\C=C3/N(CC4=CC5=C(C=CC(=C5CN(C)C)O)N=C34)C2=O
[1], RPMI 5 mM glucose + 10% FBS
Settings | cell viability [%]
0.000781 µM | 101
0.00234 µM | 107
0.00702 µM | 87.2
0.0211 µM | 107
0.0632 µM | 68.6
0.19 µM | 22.4
0.569 µM | 11.5
1.71 µM | 12.2
5.12 µM | 6.44
15.4 µM | 4.3
46.1 µM | 4.41

AUC of viability dose-response curve
Settings | [2] | [3] | [4]
HPLM + 10% dialyzed FBS | 306 | 225 | 245
RPMI 5 mM glucose + 10% FBS | 312 | 217 | 226
RPMI 5 mM glucose + 10% dialyzed FBS | 324 | 215 | 230

CCC(=O)NCC[C@@H]1CCc2ccc3c(c21)CCO3
AUC of viability dose-response curve
Settings | [2] | [3] | [4]
HPLM + 10% dialyzed FBS | 444 | 444 | 430
RPMI 5 mM glucose + 10% FBS | 446 | 455 | 431
RPMI 5 mM glucose + 10% dialyzed FBS | 449 | 459 | 435

C[C@@H]1[C@H](O)[C@@H](C)C=CC=CCCC=CC=CC=CC=C[C@H](O[C@H]2O[C@@H](C)[C@H](O)[C@@H](N)[C@H]2O)CC2O[C@](O)(C[C@@H](O)[C@H](O)CC[C@@H](O)C[C@@H](O)C[C@@H](O)CC(=O)O[C@H]1C)C[C@H](O)[C@H]2C(=O)O
AUC of viability dose-response curve
Settings | [2] | [3] | [4]
HPLM + 10% dialyzed FBS | 458 | 459 | 451
RPMI 5 mM glucose + 10% FBS | 432 | 429 | 448
RPMI 5 mM glucose + 10% dialyzed FBS | 432 | 456 | 447

CC(C)(C(=O)NCC(F)(F)C(F)(F)F)C(=O)N[C@@H]1C(=O)Nc2ccccc2-c2ccccc21
cell viability [%], [1]
Settings | HPLM + 10% dialyzed FBS | RPMI 5 mM glucose + 10% FBS
0.000781 µM | 99.6 | 96.8
0.00234 µM | 113 | 127
0.00702 µM | 120 | 120
0.0211 µM | 128 | 133
0.0632 µM | 127 | 122
0.19 µM | 119 | 128
0.569 µM | 119 | 130
1.71 µM | 123 | 108
5.12 µM | 126 | 124
15.4 µM | 129 | 72.7
46.1 µM | 3.02 | 3.52

AUC of viability dose-response curve
Settings | HPLM + 10% dialyzed FBS | RPMI 5 mM glucose + 10% FBS | RPMI 5 mM glucose + 10% dialyzed FBS
[2] | 366 | 337 | 363
[4] | 452 | 435 | 452

CO[C@H]1/C=C\C=C(\C)C(=O)NC2=CC(=O)C(NCCN(C)C)=C(C[C@@H](C)C[C@H](OC)[C@H](O)[C@@H](C)/C=C(/C)[C@@H]1OC(N)=O)C2=O
[1], HPLM + 10% dialyzed FBS
Settings | cell viability [%]
0.000781 µM | 108
0.00234 µM | 124
0.00702 µM | 118
0.0211 µM | 120
0.0632 µM | 122
0.19 µM | 60.8
0.569 µM | 31.6
1.71 µM | 25.3
5.12 µM | 25.5
15.4 µM | 23
46.1 µM | 6.44

AUC of viability dose-response curve
Settings | [2] | [3] | [4]
HPLM + 10% dialyzed FBS | 305 | 362 | 279
RPMI 5 mM glucose + 10% FBS | 308 | 328 | 274
RPMI 5 mM glucose + 10% dialyzed FBS | 309 | 333 | 268

CCCCCC[C@H]1C(=O)O[C@H](C)[C@H](NC(=O)c2cccc(NC=O)c2O)C(=O)O[C@@H](C)[C@@H]1OC(=O)CC(C)C
[1], HPLM + 10% dialyzed FBS
Settings | cell viability [%]
0.000781 µM | 90.7
0.00234 µM | 130
0.00702 µM | 111
0.0211 µM | 113
0.0632 µM | 115
0.19 µM | 123
0.569 µM | 137
1.71 µM | 111
5.12 µM | 110
15.4 µM | 112
46.1 µM | 101

AUC of viability dose-response curve
Settings | [2] | [3] | [4]
HPLM + 10% dialyzed FBS | 444 | 417 | 476
RPMI 5 mM glucose + 10% FBS | 438 | 403 | 403
RPMI 5 mM glucose + 10% dialyzed FBS | 442 | 403 | 416
